According to patent US10239844B2, “Disubstituted triazole analogs” (BioVentures, LLC, priority 2014, dated 2019):

What was measured:
Assay type in all cases: cell-based, human
HOP-62 = test: NCI 60 panel five-dose growth inhibition, Non-Small Cell Lung Cancer; details: HOP-62, Non-Small Cell Lung Cancer; for GI50: Homo sapiens
SF-268 = test: NCI 60 panel five-dose growth inhibition, CNS Cancer; details: SF-268, CNS Cancer; for GI50: Homo sapiens
U0-31 = test: NCI 60 panel five-dose growth inhibition, Renal Cancer; details: U0-31, Renal Cancer; for GI50: Homo sapiens
LOX IMVI = test: NCI 60 panel five-dose growth inhibition, Melanoma; details: for GI50: Homo sapiens
MOLT-4 = test: NCI 60 panel five-dose growth inhibition, Leukemia; details: MOLT-4, Leukemia; for GI50: Homo sapiens
NCI/ADR-RES = test: NCI 60 panel five-dose growth inhibition, Ovarian Cancer; details: for GI50: Homo sapiens
ACHN = test: NCI 60 panel five-dose growth inhibition, Renal Cancer; details: for GI50: Homo sapiens
5K-MEL-5 = test: NCI 60 panel five-dose growth inhibition, Melanoma; details: 5K-MEL-5, Melanoma; for GI50: Homo sapiens
1-ICT-15 = test: NCI 60 panel five-dose growth inhibition, Colon Cancer; details: 1-ICT-15, Colon Cancer; for GI50: Homo sapiens
CAKI-1 = test: NCI 60 panel five-dose growth inhibition, Renal Cancer; details: CAKI-1, Renal Cancer; for GI50: Homo sapiens
HT29 = test: NCI 60 panel five-dose growth inhibition, Colon Cancer; details: for GI50: Homo sapiens, HT-29
HCT-116 = test: as above; details: HCT-116, Colon Cancer; for GI50: Homo sapiens
UACC-62 = test: NCI 60 panel five-dose growth inhibition, Melanoma; details: for TGI: UACC-62, Melanoma
A549/ATCC = test: NCI 60 panel five-dose growth inhibition, Non-Small Cell Lung Cancer; details: for GI50: Homo sapiens
HL-60(T13) = test: NCI 60 panel five-dose growth inhibition, Leukemia; details: for GI50: Homo sapiens
KM12 = test: NCI 60 panel five-dose growth inhibition, Colon Cancer; details: for GI50: Homo sapiens
SW-620 = test: as above; details: SW-620, Colon Cancer; for GI50: Homo sapiens
RPMI-8226 = test: NCI 60 panel five-dose growth inhibition, Leukemia; details: RPMI-8226, Leukemia; for GI50: Homo sapiens
MDA-MB-231/ATCC = test: NCI 60 panel five-dose growth inhibition, Breast Cancer; details: for GI50: Homo sapiens
NCI-H23 = test: NCI 60 panel five-dose growth inhibition, Non-Small Cell Lung Cancer; details: for GI50: Homo sapiens
HCC-2998 = test: NCI 60 panel five-dose growth inhibition, Colon Cancer; details: HCC-2998, Colon Cancer; for GI50: Homo sapiens
IGROV1 = test: NCI 60 panel five-dose growth inhibition, Ovarian Cancer; details: for GI50: Homo sapiens, IGROV-1
M14 = test: NCI 60 panel five-dose growth inhibition, Melanoma; details: Homo sapiens
COLO 205 = test: NCI 60 panel five-dose growth inhibition, Colon Cancer; details: COLO 205, Colon Cancer; for GI50: Homo sapiens
SK-MEL-2 = test: NCI 60 panel five-dose growth inhibition, Melanoma; details: SK-MEL-2, Melanoma; for GI50: Homo sapiens
SNB-19 = test: NCI 60 panel five-dose growth inhibition, CNS Cancer; details: SNB-19, CNS Cancer; for GI50: Homo sapiens
OVCAR-4 = test: NCI 60 panel five-dose growth inhibition, Ovarian Cancer; details: OVCAR-4, Ovarian Cancer; for GI50: Homo sapiens
SK-MEL-28 = test: NCI 60 panel five-dose growth inhibition, Melanoma; details: SK-MEL-28, Melanoma; for GI50: Homo sapiens
MDA-MB-435 = test: NCI 60 panel five-dose growth inhibition, Melanoma; details: Homo sapiens; MDA-MB-435, Melanoma
CCRF-CEM = test: NCI 60 panel five-dose growth inhibition, Leukemia; details: for GI50: Homo sapiens
OVCA R-3 = test: NCI 60 panel five-dose growth inhibition, Ovarian Cancer; details: OVCA R-3, Ovarian Cancer; for GI50: Homo sapiens, OVCAR-3
NCI-H460 = test: NCI 60 panel five-dose growth inhibition, Non-Small Cell Lung Cancer; details: for GI50: Homo sapiens
HS 5781 = test: NCI 60 panel five-dose growth inhibition, Breast Cancer; details: HS 5781, Breast Cancer
K-562 = test: NCI 60 panel five-dose growth inhibition, Leukemia; details: K-562, Leukemia; for GI50: Homo sapiens, K562
786-0 = test: NCI 60 panel five-dose growth inhibition, Renal Cancer; details: 786-0, Renal Cancer; for GI50: Homo sapiens
MCF7 = test: NCI 60 panel five-dose growth inhibition, Breast Cancer; details: for GI50: Homo sapiens
PC-3 = test: NCI 60 panel five-dose growth inhibition, Prostate Cancer; details: PC-3, Prostate Cancer; for GI50: Homo sapiens

COc1ccc(-c2n[nH]nc2-c2cc(OC)c(OC)c(OC)c2)cc1 [Example 6, 4-(4-methoxyphenyl)-5-(3,4,5-trimethoxyphenyl)-2H-1,2,3-triazole]
TGI (HOP-62): 19300 nM
GI50 (HOP-62): 18.2 nM
GI50 (SF-268): 68.5 nM
TGI (SF-268): >100000 nM
GI50 (U0-31): < 10 nM
TGI (U0-31): 24600 nM
TGI (LOX IMVI): 37800 nM
GI50 (LOX IMVI): 17.5 nM
GI50 (MOLT-4): 39.9 nM
TGI (MOLT-4): 11600 nM
TGI (NCI/ADR-RES): 69700 nM
GI50 (NCI/ADR-RES): < 10 nM
TGI (ACHN): >100000 nM
GI50 (ACHN): < 10 nM
TGI (5K-MEL-5): 160 nM
GI50 (5K-MEL-5): < 10 nM
TGI (1-ICT-15): >100000 nM
GI50 (1-ICT-15): < 10 nM
TGI (CAKI-1): >100000 nM
GI50 (CAKI-1): < 10 nM
TGI (HT29): 12300 nM
GI50 (HT29): 25.3 nM
TGI (HCT-116): 810 nM
GI50 (HCT-116): < 10 nM
TGI (UACC-62): 21200 nM
TGI (A549/ATCC): 22600 nM
GI50 (A549/ATCC): 22.9 nM
TGI (HL-60(T13)): 80 nM
GI50 (HL-60(T13)): 18.9 nM
TGI (KM12): 11200 nM
GI50 (KM12): < 10 nM
GI50 (SW-620): < 10 nM
TGI (SW-620): >100000 nM
GI50 (RPMI-8226): 32.5 nM
TGI (RPMI-8226): 11000 nM
TGI (MDA-MB-231/ATCC): >100000 nM
GI50 (MDA-MB-231/ATCC): 44.4 nM
TGI (NCI-H23): 41700 nM
GI50 (NCI-H23): 48 nM
TGI (HCC-2998): 17500 nM
GI50 (HCC-2998): 39.4 nM
TGI (IGROV1): 30300 nM
GI50 (IGROV1): 33.2 nM
GI50 (M14): < 10 nM
TGI (COLO 205): 70 nM
GI50 (COLO 205): 26.7 nM
GI50 (SK-MEL-2): < 10 nM
TGI (SK-MEL-2): 18100 nM
GI50 (SNB-19): 29.4 nM
TGI (SNB-19): >100000 nM
GI50 (OVCAR-4): 33.6 nM
TGI (OVCAR-4): 57200 nM
GI50 (SK-MEL-28): > 100 nM
TGI (SK-MEL-28): 34800 nM
GI50 (MDA-MB-435): < 10 nM
TGI (CCRF-CEM): >100000 nM
GI50 (CCRF-CEM): 33.7 nM
GI50 (OVCA R-3): < 10 nM
TGI (OVCA R-3): <10 nM
TGI (NCI-H460): 20000 nM
GI50 (NCI-H460): 24.6 nM
TGI (HS 5781): 64200 nM
GI50 (HS 5781; Homo sapiens): 668 nM
GI50 (K-562): < 10 nM
TGI (K-562): >100000 nM
TGI (786-0): 13500 nM
GI50 (786-0): < 10 nM
TGI (MCF7): 37900 nM
GI50 (MCF7): < 10 nM
GI50 (PC-3): 18.4 nM
TGI (PC-3): 39400 nM

COc1cc(-c2n[nH]nc2-c2cc(OC)c(OC)c(OC)c2)cc(OC)c1OC [Example 3, 4,5-bis(3,4,5-trimethoxyphenyl)-2H-1,2,3-triazole]
TGI (HOP-62): >100000 nM
GI50 (HOP-62): 46.7 nM
GI50 (SF-268): 503 nM
TGI (SF-268): >100000 nM
GI50 (U0-31): 92.3 nM
TGI (U0-31): >100000 nM
TGI (LOX IMVI): >100000 nM
GI50 (LOX IMVI): 65.2 nM
GI50 (MOLT-4): 68.2 nM
TGI (MOLT-4): >100000 nM
TGI (NCI/ADR-RES): 66100 nM
GI50 (NCI/ADR-RES): 23.1 nM
TGI (ACHN): >100000 nM
GI50 (ACHN): 81.3 nM
TGI (5K-MEL-5): 350 nM
GI50 (5K-MEL-5): 12.6 nM
TGI (1-ICT-15): >100000 nM
GI50 (1-ICT-15): 37.3 nM
TGI (CAKI-1): >100000 nM
GI50 (CAKI-1): 42.6 nM
TGI (HT29): 14500 nM
GI50 (HT29): 214 nM
GI50 (HCT-116): 40.2 nM
GI50 (UACC-62; Homo sapiens, UACC-62, UACC-62, Melanoma): 157 nM
TGI (UACC-62): 4610 nM
TGI (A549/ATCC): >100000 nM
GI50 (A549/ATCC): 54.1 nM
TGI (HL-60(T13)): 5740 nM
GI50 (HL-60(T13)): 30 nM
TGI (KM12): >100000 nM
GI50 (KM12): 35.3 nM
GI50 (SW-620): 40.6 nM
TGI (SW-620): >100000 nM
GI50 (RPMI-8226): 36.5 nM
TGI (RPMI-8226): 87600 nM
TGI (MDA-MB-231/ATCC): >100000 nM
GI50 (MDA-MB-231/ATCC): 94.7 nM
TGI (NCI-H23): >100000 nM
GI50 (NCI-H23): 64.9 nM
TGI (HCC-2998): >100000 nM
GI50 (HCC-2998): 230 nM
TGI (IGROV1): >100000 nM
GI50 (IGROV1): 64.8 nM
GI50 (M14): 21.5 nM
TGI (COLO 205): 1160 nM
GI50 (COLO 205): 228 nM
GI50 (SK-MEL-2): 26.9 nM
TGI (SK-MEL-2): 4240 nM
GI50 (SNB-19): 52.5 nM
TGI (SNB-19): >100000 nM
GI50 (OVCAR-4): 77.4 nM
TGI (OVCAR-4): >100000 nM
GI50 (SK-MEL-28): > 1000 nM
TGI (SK-MEL-28): 6330 nM
GI50 (MDA-MB-435): < 10 nM
TGI (CCRF-CEM): >100000 nM
GI50 (CCRF-CEM): 37.3 nM
GI50 (OVCA R-3): 10.8 nM
TGI (OVCA R-3): 40 nM
TGI (NCI-H460): >100000 nM
GI50 (NCI-H460): 38.1 nM
TGI (HS 5781): >100000 nM
GI50 (K-562): 25.7 nM
TGI (K-562): >100000 nM
TGI (786-0): >100000 nM
GI50 (786-0): 42.8 nM
TGI (MCF7): >100000 nM
GI50 (MCF7): 26.9 nM
GI50 (PC-3): 45.8 nM
TGI (PC-3): >100000 nM
